Reference: patent publication US20230339915A1 (Vertex Pharmaceuticals Incorporated, priority 2020, published 2023)

What was measured:
[1] = molecular target: NL20 human bronchial epithelial cells expressing human Z-AAT (Homo sapiens (Human), UniProt P01009, E366K); experiment: AAT Function Assay (MSD Assay NL20-SI Cell Line); assay type: cell-based; conditions: functionally active AAT (AAT-hNE complex, MSD) in supernatant of NL20 cells expressing human Z-AAT; read-out: NL20 Functional EC50
Description: A. AAT Function Assay (MSD Assay NL20-SI Cell Line)
Alpha-1 antitrypsin (AAT) is a SERpIN (serine protease inhibitor) that inactivates enzymes by binding to them covalently. This assay measured the amount of functionally active AAT in a sample in the presence of the disclosed Compounds 1-227 by determining the ability of AAT to form an irreversible complex with human neutrophil Elastase (hNE). In practice, the sample (cell supernatant, blood sample, or other) was incubated with excess hNE to allow AAT-Elastase complex to be formed with all functional AAT in the sample. This complex was then captured to a microplate coated with an anti-AAT antibody. The complex captured to the plate was detected with a labeled anti-Elastase antibody and quantitated using a set of AAT standards spanning the concentration range present in the sample. Meso Scale Discovery (MSD) plate reader, Sulfo-tag labeling, and microplates were used to provide high sensitivity and wide dynamic range.
Instrument(S): • Meso Sector S600 • Bravo • Washer dispenser • Multidrop Combi
Day 1 Cell Culture • 1. Harvest NL20 human bronchial epithelial cells expressing human Z-AAT in OptiMEM™ containing Pen/Strep (P/S) • 2. Seed at 16,000 cells/well in 30 μL (384 well plate) • 3. Centrifuge plates briefly up to speed (1200 rpm) and place into 37° C. incubator overnight
Day 2: Compound Addition and Coating Plates with Capture Antibody
Compound Addition: • 1. Dispense 40 μL of OptiMEM™ (P/S) with doxycycline (1:1000 stock=0.1 μM final) to each well of the compound plate using a multidrop Combi in hood • 2. Remove cell plate from incubator, flip/blot and take immediately to Bravo to transfer compounds • 3. Return plates to incubator overnight
Coat MSD Plates • 1. Dilute capture antibody (Polyclonal Goat anti-AAT) to 5 μg/mL (1:200) in PBS (no BSA). • 2. Dispense 25 μL of diluted capture antibody into all wells of MSD 384-well High Bind plate using the Multidrop equipped with a standard cassette. • 3. Incubate overnight at 4° C.
Prepare Blocker A (BSA) Solutions • 1. Prepare solution of 5% MSD Blocker A (BSA) following the manufacturer's instructions. • 2. Further dilute the 5% MSD Blocker A in PBS to 1% (Blocker A) as needed.
Block Plates • 1. Wash plate 1× with 50 μL Wash buffer (PBS+0.5% Tween 20), and adds 35 μL 5% Block A buffer to block non-specific binding on washer dispenser • 2. Rotate plates on shaker for 1 hour at 600 rpm
Prepare M-AA T Standards • 1. Dilute M-AAT stock to 1.6 μg/mL in 1% BSA Blocker A (Stock in −70° C.); then prepare 12×1:2 serial dilutions in 1% Blocker A • 2. The top starting final concentration on MSD plate is 320 ng/mL. These dilutions correspond to a final concentration of 320, 160, 80, 40, 20, 10, 5, 2.5, 1.25, 0.625, 0.312, 0.156 ng/mL.
Dilution Plate • 1. Add 80 μL of 1% Assay buffer to all wells except columns 1/24 (standards) with Multidrop Combi • 2. Add diluted standards to columns 1 and 24 • 3. Centrifuge dilution plates 1200 rpm briefly
Cell Plate • 1. Aspirate columns which will have the standards from the cell plates in the hood using 16-pin aspirator
Prepare Human Neutrophil Elastase (hNE) • 1. Prepare 1 μg/mL Human Neutrophil Elastase by diluting in 1% Blocker A. • a. Small 100 μg vial—add 1 mL PBS (100 μg/mL) • i. This can then be diluted 1:100 in 1% Assay Buffer for a final 1 μg/mL concentration
MSD—add hNE (20 μL/well) • 1. After the MSD plate has blocked for at least 1 hour, wash plate 1× with 50 μL Wash buffer (PBS+0.5% Tween 20) and then add 20 μL hNE to each well
Bravo—Cell Plate—Dilution Plate—MSD Plate
Using the Bravo aspirate 10 μL from the cell plate, transfer to the dilution plate (9-fold dilution) • 1. Mix 25 μL 3×, then aspirate 5 μL, transfer to MSD plate (5-fold dilution) • 2. Mix 10 μL 3×. Total dilution is 45 fold. • 3. Shake plates at 600 rpm for 1.5 hours
Add Functional Detection hNE Antibody • 1. Wash plate 1× with wash buffer • 2. […]

[2] = molecular target: purified Z-AAT protein from human plasma (Homo sapiens (Human), UniProt P01009, E366K); experiment: Biochemical Assay (Z-AAT Elastase Activity Assay); conditions: purified Z-AAT pre-incubated with compound 1 hour, then human neutrophil elastase and fluorescent substrate
Text: B. Biochemical Assay (Z-AAT Elastase Activity Assay)
This assay measured the modulation of Compounds 1-227 on Z-AAT SERpIN activity using purified Z-AAT protein and purified human neutrophil elastase (hNE). Normally, when active monomeric Z-AAT encounters a protease such as trypsin or elastase, it forms a 1:1 covalent “suicide” complex in which both the AAT and protease are irreversibly inactivated. However, compounds binding to Z-AAT can lead to a decrease in SERpIN activity. In such cases, when a protease encounters compound-bound Z-AAT, the protease cleaves and inactivates Z-AAT without itself being inactivated.
Reagents • PBS buffer (media prep)+0.01% BRIJ35 detergent (Calbiochem catalog #203728) Opti-MEM media (Fisher 11058-021) • Human neutrophil elastase (hNE, Athens Research #16-14-051200) • 3.4 μM stock (0.1 mg/mL) prepared in 50 mM Na Acetate, pH 5.5, 150 mM NaCl, stored at −80° C. • Elastase substrate V (ES V, fluorescent peptide substrate MeOSuc-Ala-Ala-Pro-Val-AMC, Calbiochem catalog #324740) • 20 mM stock in DMSO, stored at −20° C. • Purified Z-AAT protein from human plasma; • 12.9 μM (0.67 mg/mL) Z-AAT Vertex Cambridge Sample 4942, from patient • #061-SSN, stored at −80 C
Plates • Corning 4511 (384 well black low volume)
Instruments • PerkinElmer® EnVision™
Pre-Incubation of Z-AAT with Compounds • 1. 7.5 μL of Z-AAT (20 nM) was incubated with compounds 1-227 in a GCA plate for 1 hour at room temperature
Addition of hNE • 1. 7.5 ul of HNE solution (3 nM in PBS+0.01% BRIJ35) added into GCA plate • 2. Incubate plate for 30 minutes to allow Z-AAT/HNE suicide complex formation.
Addition of Substrate and Read Plate on PE Envision • 1. 7.5 μL of substrate (300 μM solution of elastase substrate (ES V) in PBS+0.01% BRIJ35) dispensed per well into GCA plate • 2. Immediately read on Envision.

Chain of NL20 human bronchial epithelial cells expressing human Z-AAT (P01009 25-418 E366K limits assumed): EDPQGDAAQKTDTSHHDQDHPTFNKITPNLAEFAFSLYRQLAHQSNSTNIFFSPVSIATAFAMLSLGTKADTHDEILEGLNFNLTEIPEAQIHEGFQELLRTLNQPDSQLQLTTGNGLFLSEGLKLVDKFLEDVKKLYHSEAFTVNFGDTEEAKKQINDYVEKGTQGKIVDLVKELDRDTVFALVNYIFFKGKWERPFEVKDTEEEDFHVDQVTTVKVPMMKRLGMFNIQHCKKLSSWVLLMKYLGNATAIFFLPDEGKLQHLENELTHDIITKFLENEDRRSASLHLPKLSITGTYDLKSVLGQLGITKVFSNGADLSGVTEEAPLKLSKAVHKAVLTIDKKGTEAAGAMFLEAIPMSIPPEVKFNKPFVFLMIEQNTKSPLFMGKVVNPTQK
Chain of purified Z-AAT protein from human plasma (P01009 25-418 E366K limits assumed): as above

Row | SMILES | EC50 [1] [nM] | IC50 [2] [nM]
1 | C[C@]1(C(=O)O)C[C@@H](c2c(C3CCOCC3)n(-c3ccc(F)c(Cl)c3)c3ccc(O)cc32)C1 [Compound 28] | > 2000 | > 30000
2 | Cc1cc(-n2c(C3CCOCC3)c([C@H]3C[C@](CF)(C(=O)O)C3)c3cc(O)ccc32)ccc1F [Compound 108] | 500 to 2000 | > 5000
3 | Cc1cc(-n2c(C3CCOCC3)c([C@H]3C[C@@](CO)(C(=O)O)C3)c3cc(O)ccc32)ccc1F [Compound 109] | > 2000 | > 30000
4 | C[C@]1(C(=O)O)C[C@H](c2c(C3CCOCC3)n(-c3ccc(F)cc3)c3ccc(O)cc32)C1 [Compound 48] | > 2000 | > 30000
5 | CC(C)(CCc1c(C2CCOCC2)n(-c2ccc(F)cc2)c2ccc(O)cc12)C(=O)O [Compound 30] | 500 to 2000 | > 30000
6 | O=C(O)[C@H]1C[C@@H](c2c(C3CCOCC3)n(-c3ccc(F)cc3)c3ccc(O)cc32)C1 [Compound 46] | > 2000 | > 30000
7 | C[C@]1(C(=O)O)C[C@@H](c2c(C3CCOCC3)n(-c3ccccc3)c3ccc(O)cc32)C1 [Compound 52] | > 2000 | > 30000
8 | O=C(O)[C@]1(CF)C[C@@H](c2c(C3CCOCC3)n(-c3ccc(F)cc3)c3ccc(O)cc32)C1 [Compound 118] | > 2000 | > 30000
9 | Cc1cc(-n2c(C3CCOCC3)c(CC3CC(C(=O)O)C3)c3cc(O)ccc32)ccc1F (stereo not shown) [Compound 25] | 500 to 2000 | > 30000
10 | CC(C)c1c(C#N)c2cc(O)ccc2n1-c1ccc(F)cc1 [Compound 185, 1-(4-fluorophenyl)-5-hydroxy-2-isopropyl-1H-indole-3-carbonitrile] | < 500 | > 30000
11 | Cc1cc(-n2c(C3CCOCC3)c(CCC(C)(C)C(=O)O)c3cc(O)ccc32)ccc1F [Compound 14] | 500 to 2000 | > 30000
12 | O=C(O)[C@]1(C(F)(F)F)C[C@H](c2c(C3CCOCC3)n(-c3ccc(F)c(Cl)c3)c3ccc(O)cc32)C1 [Compound 38] | > 2000 | > 30000
13 | Cc1cc(-n2c(C3CCS(=O)(=O)CC3)c(C[C@H]3CC[C@H](C(=O)O)CC3)c3cc(O)ccc32)ccc1F [Compound 44] | > 2000 | > 30000
14 | Cc1cc(-n2c(C)c(C#N)c3cc(O)c(N)cc32)ccc1F [Compound 211, 6-amino-1-(4-fluoro-3-methylphenyl)-5-hydroxy-2-methyl-1H-indole-3-carbonitrile] | > 2000 | > 30000
15 | COCC(C)(C)c1c(-c2ccc(C(=O)O)cc2)c2cc(O)ccc2n1-c1ccc(F)cc1 [Compound 164, 4-(1-(4-fluorophenyl)-5-hydroxy-2-(1-methoxy-2-methylpropan-2-yl)-1H-indol-3-yl)benzoic acid] | < 500 | < 2000
16 | N#Cc1c(C2=S(N)(=O)CCC2)n(-c2ccc(F)cc2)c2ccc(O)cc12 (stereo not shown) [Compound 207] | > 2000 | > 30000

Continued, values first:

Row | EC50 [1] [nM] | IC50 [2] [nM] | SMILES
17 | > 2000 | > 30000 | Cc1cc(-n2c(C(C)C)c([C@H]3C[C@H](CO)C3)c3cc(O)ccc32)ccc1F [Compound 225, Trans-1-(4-fluoro-3-methyl-phenyl)-3-[3-(hydroxymethyl)cyclobutyl]-2-isopropyl-indol-5-ol]
18 | > 2000 | > 30000 | Cc1cc(-n2c([C@@H]3CCOC3)c([C@H]3C[C@@H](C(=O)O)C3)c3cc(O)ccc32)ccc1F [Compound 85]
19 | > 2000 | > 30000 | Cc1cc(-n2c(C(C)C)c(C3CCOC(C(=O)O)C3)c3cc(O)ccc32)ccc1F (stereo not shown) [Compound 65]
20 | > 2000 | > 5000 | Cc1cc(-n2c(C(C)C)c([C@H]3C[C@H](C(=O)NS(C)(=O)=O)C3)c3cc(O)ccc32)ccc1F [Compound 220, trans-3-[1-(4-fluoro-3-methyl-phenyl)-5-hydroxy-2-isopropyl-indol-3-yl]-N-methylsulfonyl-cyclobutanecarboxamide]
21 | < 500 | 2000 to 5000 | Cc1cc(-n2c(C(C)C)c(C3CC4(CC(C(=O)O)C4)C3)c3cc(O)ccc32)ccc1F (stereo not shown) [Compound 97]
22 | 500 to 2000 | > 30000 | Cc1cc(-n2c(C(C)C)c(CCC(=O)O)c3cc(O)ccc32)ccc1F [Compound 122]
23 | > 2000 | > 30000 | Cc1cc(-n2c(C(C)C)c(CC(C)C(=O)O)c3cc(O)ccc32)ccc1F (single isomer, unassigned) [Compound 102]
24 | > 2000 | > 30000 | Cc1cc(-n2c([C@H]3CCOC3)c([C@H]3C[C@@H](C(=O)O)C3)c3cc(O)ccc32)ccc1F [Compound 87]
25 | > 2000 | > 30000 | Cc1cc(-n2c(C(C)C)c([C@H]3CC[C@@H](C(=O)O)C3)c3cc(O)ccc32)ccc1F (racemic) [Compound 74]
26 | > 2000 | > 30000 | CC(C)c1c([C@H]2C[C@@H](C(=O)O)C2)c2cc(O)ccc2n1-c1ccc(F)cc1 [Compound 91]
27 | > 2000 | > 30000 | Cc1cc(-n2c(C3CCOCC3)c(C[C@H]3C[C@H](C(=O)O)C3)c3cc(O)ccc32)ccc1F [Compound 7]
28 | > 2000 | > 30000 | COC(C)(Cc1c(C(C)C)n(-c2ccc(F)c(C)c2)c2ccc(O)cc12)C(=O)O (stereo not shown) [Compound 151, 3-(1-(4-fluoro-3-methylphenyl)-5-hydroxy-2-isopropyl-1H-indol-3-yl)-2-methoxy-2-methylpropanoic acid]
29 | 500 to 2000 | > 5000 | Cc1cc(-n2c(C(C)C)c(C3CC(F)(C(=O)O)C3)c3cc(O)ccc32)ccc1F (single isomer, unassigned) [Compound 150]
